Assay results from US7781641B2, “Absorbent article” (Kao Corporation, priority 2003, dated 2010).

Experiment: Method of measuring viscosity (tuning fork type vibration mode viscometer)
Assay type: physicochemical
Protocol: Measurement is conducted using a tuning fork type vibration mode viscometer (VIBRO NISCOMETERCJV5000 (manufactured by A&D Company Limited) is typically used in this embodiment). An oily skin care agent heated previously at about 100° C. is gradually cooled to room temperature, and viscosity at the predetermined temperature is measured.
“Viscosity of a diamide derivative” in the present invention was measured by the same measuring method as used for the viscosity of an oily skin care agent in the above mentioned first embodiment.

viscosity at 36° C.: 1000 mPa·s
SMILES: CCCCCCCCCCCCCCCCOCC(O)CN(CCO)C(=O)CCCCCCCCCCCCCCC (stereo not shown) [Monoamide of the formula (III)]
